Results published in the supplement of paper PMC11061612.

Key:
Test in all cases: Bliss excess, mean over the matrix (fraction); higher = more synergy
[1] = test system: NCI-H209 (Small Cell Lung Carcinoma)
How it was run: (§1)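 After 24 hours at 37°C and 5% CO2 in 1536-well plates, cells in DMEM/F12 or RPMI plus 10% FBS received two-drug dose matrices for 72 hours. Viability came from CellTiter-Glo 2.0 luminescence and was scaled as inhibition, anchored at 0 by vehicle wells and at 1 by blank wells. Combination Emax is taken as the second-highest inhibition in the matrix, and Bliss excess as the observed combination effect less EA + EB − EA·EB, with EA and EB the single-agent effects.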

EW-11 (Ewing's Sarcoma) = test system: EW-11 (Ewing's Sarcoma)
How it was run: as §1

CAL-72 (Osteosarcoma) = test system: CAL-72 (Osteosarcoma)
How it was run: as §1

[2] = test system: LS-123 (Colorectal Carcinoma)
How it was run: as §1

[3] = test system: LCLC-97TM1 (Non-Small Cell Lung Carcinoma)
How it was run: as §1

[4] = test system: OVCAR-5 (Ovarian Carcinoma)
How it was run: as §1

[5] = test system: HH (T-Cell Non-Hodgkin's Lymphoma)
How it was run: as §1

[6] = test system: SW1573 (Lung Adenocarcinoma)
How it was run: as §1

LOXIMVI (Melanoma) = test system: LOXIMVI (Melanoma)
How it was run: as §1

[7] = test system: ALL-PO (B-Lymphoblastic Leukemia)
How it was run: as §1

| SMILES | Bliss excess [1] | Bliss excess (EW-11 (Ewing's Sarcoma)) | Bliss excess (CAL-72 (Osteosarcoma)) | Bliss excess [2] | Bliss excess [3] | Bliss excess [4] | Bliss excess [5] | Bliss excess [6] | Bliss excess (LOXIMVI (Melanoma)) | Bliss excess [7] |
| --- | --- | --- | --- | --- | --- | --- | --- | --- | --- | --- |
| NC1(C(=O)N[C@@H](CCO)c2ccc(Cl)cc2)CCN(c2ncnc3[nH]ccc23)CC1 [Capivasertib] + Cn1cnc2c(F)c(Nc3ccc(Br)cc3Cl)c(C(=O)NOCCO)cc21 [Selumetinib] (first compound max 10 µM, 7x7, partner max 10 µM) | -0.0108 | 0.021 | 0.0427 | 0.0583 | 0.0752 | -0.028 | -0.0626 | -0.0111 | 0.107 | 0.117 |
| CS(=O)(=O)CCNCc1ccc(-c2ccc3ncnc(Nc4ccc(OCc5cccc(F)c5)c(Cl)c4)c3c2)o1 [Lapatinib] + C[C@@H](Oc1cc(-c2cnn(C3CCNCC3)c2)cnc1N)c1c(Cl)ccc(F)c1Cl [Crizotinib] (first compound max 10 µM, 7x7, partner max 10 µM) | -0.003 | -0.0233 | -0.0926 | -0.0052 | -0.0093 | -0.0818 | -0.0405 | -0.0788 | -0.0505 | 0.035 |
| CC(=O)c1c(C)c2cnc(Nc3ccc(N4CCNCC4)cn3)nc2n(C2CCCC2)c1=O [Palbociclib] + CC1(C)CCC(CN2CCN(c3ccc(C(=O)NS(=O)(=O)c4ccc(NCC5CCOCC5)c([N+](=O)[O-])c4)c(Oc4cnc5[nH]ccc5c4)c3)CC2)=C(c2ccc(Cl)cc2)C1 [Venetoclax] (first compound max 10 µM, 7x7, partner max 1 µM) | 0.0824 | -0.0083 | -0.0439 | -0.0324 | -0.0231 | -0.0018 | -0.0384 | -0.0108 | -0.0045 | 0.169 |
| CC(=O)c1c(C)c2cnc(Nc3ccc(N4CCNCC4)cn3)nc2n(C2CCCC2)c1=O [Palbociclib] + Cc1c2c(nn1C)CSCc1cc(n(C)n1)CSc1cc(c3ccccc3c1)OCCCc1c(C(=O)O)n(C)c3c-2c(Cl)ccc13 [AZD5991] (first compound max 10 µM, 7x7, partner max 1 µM) | -0.0107 | 0.0284 | -0.0073 | -0.0376 | -0.0149 | -0.0406 | -0.131 | -0.0431 | -0.0325 | -0.0065 |
| CC(=O)c1c(C)c2cnc(Nc3ccc(N4CCNCC4)cn3)nc2n(C2CCCC2)c1=O [Palbociclib] + Cn1cnc2c(F)c(Nc3ccc(Br)cc3Cl)c(C(=O)NOCCO)cc21 [Selumetinib] (first compound max 10 µM, 7x7, partner max 10 µM) | -0.0528 | -0.0298 | 0.0683 | 0.002 | 0.0728 | -0.0041 | -0.0471 | -0.0288 | 0.0724 | 0.0243 |
| Cn1cnc2c(F)c(Nc3ccc(Br)cc3Cl)c(C(=O)NOCCO)cc21 [Selumetinib] + C=CCn1c(=O)c2cnc(Nc3ccc(N4CCN(C)CC4)cc3)nc2n1-c1cccc(C(C)(C)O)n1 [AZD1775] (first compound max 10 µM, partner max 1 µM) | -0.0211 | -0.0464 | -0.117 | 0.0099 | -0.0335 | -0.0074 | -0.0605 | -0.0582 | 0.0822 | 0.0229 |
| Cn1cnc2c(F)c(Nc3ccc(Br)cc3Cl)c(C(=O)NOCCO)cc21 [Selumetinib] + CC(C)n1c(=O)n(C)c2cnc3cc(F)c(-c4ccc(OCCCN5CCCCC5)nc4)cc3c21 [AZD1390] (first compound max 10 µM, 7x7, partner max 0.3 µM) | -0.037 | -0.0399 | -0.0484 | 0.0194 | 0.0069 | 0.0017 | -0.0536 | -0.0796 | -0.0098 | 0.0208 |
| Cn1cnc2c(F)c(Nc3ccc(Br)cc3Cl)c(C(=O)NOCCO)cc21 [Selumetinib] + CCN(CCO)CCCOc1ccc2c(Nc3cc(CC(=O)Nc4cccc(F)c4)[nH]n3)ncnc2c1 [AZD2811] (first compound max 10 µM, 7x7, partner max 1 µM) | 0.0805 | -0.0705 | -0.0369 | 0.0199 | 0.0594 | -0.0054 | -0.0825 | -0.0605 | 0.012 | -0.0029 |
| Cn1cnc2c(F)c(Nc3ccc(Br)cc3Cl)c(C(=O)NOCCO)cc21 [Selumetinib] + C[C@@H]1COCCN1C2=NC(=NC(=C2)C3(CC3)[S@](=N)(=O)C)C4=C5C=CNC5=NC=C4 [AZD6738] (first compound max 10 µM, 7x7, partner max 10 µM) | -0.0403 | -0.0605 | -0.0387 | 0.0709 | -0.0043 | -0.0236 | -0.038 | -0.0587 | 0.0322 | 0.0391 |
| CC(=O)Nc1cccc(-n2c(=O)n(C3CC3)c(=O)c3c(Nc4ccc(I)cc4F)n(C)c(=O)c(C)c32)c1 [Trametinib] + Cc1nc(-c2cn3c(n2)-c2ccc(-c4cnn(C(C)(C)C(N)=O)c4)cc2OCC3)n(C(C)C)n1 [Taselisib] (first compound max 1 µM, 7x7, partner max 10 µM) | -0.0014 | 0.0443 | -0.0264 | 0.0939 | 0.0752 | 0.105 | 0.0868 | 0.0334 | 0.137 | 0.318 |
| CC1(C)CCC(CN2CCN(c3ccc(C(=O)NS(=O)(=O)c4ccc(NCC5CCOCC5)c([N+](=O)[O-])c4)c(Oc4cnc5[nH]ccc5c4)c3)CC2)=C(c2ccc(Cl)cc2)C1 [Venetoclax] + C1CN(CCC1(C(=O)N[C@@H](CCO)C2=CC=C(C=C2)Cl)N)C3=NC=NC4=C3C=CN4 [Capivasertib] (first compound max 1 µM, 7x7, partner max 3 µM) | -0.0005 | -0.0335 | -0.04 | -0.0134 | -0.033 | -0.0649 | 0.0213 | -0.0428 | -0.0142 | 0.0446 |
| CC1(C)CCC(CN2CCN(c3ccc(C(=O)NS(=O)(=O)c4ccc(NCC5CCOCC5)c([N+](=O)[O-])c4)c(Oc4cnc5[nH]ccc5c4)c3)CC2)=C(c2ccc(Cl)cc2)C1 [Venetoclax] + C=CCn1c(=O)c2cnc(Nc3ccc(N4CCN(C)CC4)cc3)nc2n1-c1cccc(C(C)(C)O)n1 [AZD1775] (first compound max 1 µM, partner max 1 µM) | 0.107 | 0.0341 | 0.0256 | -0.0165 | -0.0364 | 0.0332 | 0.029 | -0.0427 | 0.0417 | 0.136 |
| CC1(C)CCC(CN2CCN(c3ccc(C(=O)NS(=O)(=O)c4ccc(NCC5CCOCC5)c([N+](=O)[O-])c4)c(Oc4cnc5[nH]ccc5c4)c3)CC2)=C(c2ccc(Cl)cc2)C1 [Venetoclax] + CCN(CCO)CCCOc1ccc2c(Nc3cc(CC(=O)Nc4cccc(F)c4)[nH]n3)ncnc2c1 [AZD2811] (first compound max 1 µM, 7x7, partner max 1 µM) | 0.356 | -0.0186 | -0.0984 | -0.0437 | -0.0053 | -0.0482 | -0.0152 | -0.0575 | 0.0139 | 0.0129 |
| CC1(C)CCC(CN2CCN(c3ccc(C(=O)NS(=O)(=O)c4ccc(NCC5CCOCC5)c([N+](=O)[O-])c4)c(Oc4cnc5[nH]ccc5c4)c3)CC2)=C(c2ccc(Cl)cc2)C1 [Venetoclax] + CN(C)CCCOc1ccc(-c2ccc3ncc4c(c3c2)n(C2CCOCC2)c(=O)n4C)cn1 [AZD0156] (first compound max 1 µM, 7x7, partner max 1 µM) | 0.0423 | 0.0067 | -0.0002 | -0.0169 | -0.0466 | -0.0195 | -0.0066 | -0.0553 | 0.0539 | 0.108 |
| CC1(C)CCC(CN2CCN(c3ccc(C(=O)NS(=O)(=O)c4ccc(NCC5CCOCC5)c([N+](=O)[O-])c4)c(Oc4cnc5[nH]ccc5c4)c3)CC2)=C(c2ccc(Cl)cc2)C1 [Venetoclax] + COc1cc(Nc2ncc3c(n2)-c2ccc(Cl)cc2C(c2c(F)cccc2OC)=NC3)ccc1C(=O)O [Alisertib] (first compound max 1 µM, 7x7, partner max 10 µM) | 0.318 | 0.0369 | -0.049 | 0.0288 | 0.0449 | -0.0703 | -0.0223 | -0.0548 | -0.0332 | 0.0529 |
| CC1(C)CCC(CN2CCN(c3ccc(C(=O)NS(=O)(=O)c4ccc(NCC5CCOCC5)c([N+](=O)[O-])c4)c(Oc4cnc5[nH]ccc5c4)c3)CC2)=C(c2ccc(Cl)cc2)C1 [Venetoclax] + C[C@@H]1COCCN1C2=NC(=NC(=C2)C3(CC3)[S@](=N)(=O)C)C4=C5C=CNC5=NC=C4 [AZD6738] (first compound max 1 µM, 7x7, partner max 10 µM) | 0.127 | 0.0321 | -0.0313 | -0.0395 | -0.0506 | -0.0717 | -0.0012 | -0.0705 | -0.011 | 0.0306 |
| CC1(C)CCC(CN2CCN(c3ccc(C(=O)NS(=O)(=O)c4ccc(NCC5CCOCC5)c([N+](=O)[O-])c4)c(Oc4cnc5[nH]ccc5c4)c3)CC2)=C(c2ccc(Cl)cc2)C1 [Venetoclax] + C[C@@H](Nc1cc(F)cc(F)c1)c1cc(C(=O)N(C)C)cc2c(=O)cc(N3CCOCC3)oc12 [AZD8186] (first compound max 1 µM, 7x7, partner max 3 µM) | 0.1 | -0.0227 | -0.0042 | 0.0135 | -0.0368 | -0.0495 | 0.0221 | -0.0556 | -0.0243 | 0.202 |
| CC1(C)CCC(CN2CCN(c3ccc(C(=O)NS(=O)(=O)c4ccc(NCC5CCOCC5)c([N+](=O)[O-])c4)c(Oc4cnc5[nH]ccc5c4)c3)CC2)=C(c2ccc(Cl)cc2)C1 [Venetoclax] + Cc1cc2ncnn2cc1Nc1ncc2c(n1)n(C1CCOCC1)c(=O)n2C [AZD7648] (first compound max 1 µM, 7x7, partner max 10 µM) | 0.0416 | 0.0082 | -0.0713 | -0.0543 | -0.0144 | -0.075 | -0.0061 | -0.0609 | -0.0277 | 0.11 |
| CC1(C)CCC(CN2CCN(c3ccc(C(=O)NS(=O)(=O)c4ccc(NCC5CCOCC5)c([N+](=O)[O-])c4)c(Oc4cnc5[nH]ccc5c4)c3)CC2)=C(c2ccc(Cl)cc2)C1 [Venetoclax] + Cn1cnc2c(F)c(Nc3ccc(Br)cc3Cl)c(C(=O)NOCCO)cc21 [Selumetinib] (first compound max 1 µM, 7x7, partner max 3 µM) | 0.0379 | -0.0583 | -0.0593 | -0.0512 | -0.0023 | -0.069 | -0.0387 | -0.0621 | -0.0228 | 0.0801 |
